Data from ChEMBL document CHEMBL1150148, “Isolation and structure elucidation of an isoflavone and a sesterterpenoic acid from Henriettella fascicularis” (J Nat Prod, 2002).

Columns and labels:
Ishikawa [1] = assay: Antiestrogenic activity in human Ishikawa cells assessed as inhibition of estradiol-induced induction of alkaline phosphatase activity after 4 days by para-nitrophenol release assay; format: functional, cell-based; details: 96 h
Estrogen receptor = molecular target: T1, Estrogen receptor (Homo sapiens, UniProt P03372)
T1 sequence (P03372 whole entry): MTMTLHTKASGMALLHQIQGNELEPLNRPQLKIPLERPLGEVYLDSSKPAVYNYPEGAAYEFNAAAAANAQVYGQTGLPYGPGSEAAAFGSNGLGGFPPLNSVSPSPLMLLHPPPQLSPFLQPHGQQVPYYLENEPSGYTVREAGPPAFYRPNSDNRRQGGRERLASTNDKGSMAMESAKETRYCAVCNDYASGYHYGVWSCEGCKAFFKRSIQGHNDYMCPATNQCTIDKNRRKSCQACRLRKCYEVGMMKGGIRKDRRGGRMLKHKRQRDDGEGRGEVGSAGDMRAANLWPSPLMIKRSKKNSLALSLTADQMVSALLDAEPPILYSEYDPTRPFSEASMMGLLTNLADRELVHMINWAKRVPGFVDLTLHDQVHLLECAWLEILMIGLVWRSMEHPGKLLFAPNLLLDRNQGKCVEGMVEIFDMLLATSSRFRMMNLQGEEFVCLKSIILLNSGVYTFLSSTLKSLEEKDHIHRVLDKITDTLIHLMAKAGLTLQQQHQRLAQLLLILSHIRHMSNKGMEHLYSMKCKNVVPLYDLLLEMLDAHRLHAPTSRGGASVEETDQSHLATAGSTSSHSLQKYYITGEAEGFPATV

Ishikawa [2] = assay: Estrogenic activity in human Ishikawa cells assessed as induction of alkaline phosphatase activity after 4 days by para-nitrophenol release assay; format: functional, cell-based; details: 96 h
Estrogen receptor beta = Estrogen receptor beta (Homo sapiens, UniProt Q92731)
Sequence of Estrogen receptor beta (Q92731 whole entry): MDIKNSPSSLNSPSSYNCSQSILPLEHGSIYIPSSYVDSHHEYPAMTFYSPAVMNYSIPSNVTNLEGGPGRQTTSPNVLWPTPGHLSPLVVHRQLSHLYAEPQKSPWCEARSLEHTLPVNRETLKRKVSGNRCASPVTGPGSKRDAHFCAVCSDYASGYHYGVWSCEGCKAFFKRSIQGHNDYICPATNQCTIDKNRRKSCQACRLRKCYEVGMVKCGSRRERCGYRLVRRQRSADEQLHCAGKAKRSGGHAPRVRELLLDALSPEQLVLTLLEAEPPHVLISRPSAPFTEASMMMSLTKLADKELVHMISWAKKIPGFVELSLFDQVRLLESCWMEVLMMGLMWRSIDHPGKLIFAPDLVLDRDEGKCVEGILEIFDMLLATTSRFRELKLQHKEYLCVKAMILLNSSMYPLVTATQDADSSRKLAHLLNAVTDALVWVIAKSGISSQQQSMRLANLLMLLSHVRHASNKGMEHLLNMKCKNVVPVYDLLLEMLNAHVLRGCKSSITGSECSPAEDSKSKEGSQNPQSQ
Description: Displacement of [3H]estradiol from human recombinant ERbeta

Ishikawa [3] = assay: Antiestrogenic activity in human Ishikawa cells assessed as inhibition of estradiol-induced induction of alkaline phosphatase activity at 20 uM after 4 days by para-nitrophenol release assay; format: functional; details: 96 h

SMILES | IC50 (Ishikawa [1]) [µM] | IC50 (Estrogen receptor) [µM] | IC50 (Ishikawa [2]) [µM] | IC50 (Estrogen receptor beta) [µM] | inhibition at 20 µM (Ishikawa [3]) [%]
Cc1c(O)c(C)c2occ(-c3ccc(O)cc3)c(=O)c2c1O | 10.5 | 10.2 | > 20 | 0.88 | –
O=c1c(-c2ccc(O)cc2)coc2cc(O)cc(O)c12 [GENISTEIN] | – | – | 0.51 | – | –
O=c1cc(-c2ccc(O)cc2)oc2cc(O)cc(O)c12 [APIGENIN] | – | – | – | – | 25
